Assay results as given in ChEMBL document CHEMBL4837257, “Discovery of the Oxadiazine FRM-024: A Potent CNS-Penetrant Gamma Secretase Modulator” (J Med Chem, 2021).
The source made the active and inactive calls. The calls are words filed in the database; no cut-off is given here.

How the values were obtained:
Rattus norvegicus [1] = assay: In vivo modulation of gamma secretase in rat assessed as reduction in Abeta40 levels in CSF at 30 mg/kg, po measured at 9 hrs by ELISA relative to control; assay type: functional, Cerebrospinal fluid; set-up: scale not given: the % may be the effect or the level left
Rattus norvegicus [2] = assay: In vivo modulation of gamma secretase in rat assessed as reduction in Abeta42 levels in CSF by measuring AUC(0 to 24 hrs) at 30 mg/kg, po by ELISA; assay type: functional, Cerebrospinal fluid; set-up: scale not given: the % may be the effect or the level left
[3] = Drug metabolism in monkey hepatocytes assessed as mono and di-oxidative metabolites formation after 4 hrs; assay type: ADME, cell-based, Macaca mulatta, Hepatocyte; details: rhesus monkey
[4] = Toxicity in rat assessed as effect on cardiac compliance by telemetry; details: in vivo
[5] = Volume of distribution at steady state in dog at 0.5 mg/kg, iv; assay type: ADME, organism-based, Canis lupus familiaris; details: in vivo, read-out: Vdss
[6] = Drug metabolism in dog hepatocytes assessed as mono and di-oxidative metabolites formation after 4 hrs; assay type: ADME, cell-based, Canis lupus familiaris, Hepatocyte
[7] = AUClast in nonhuman primate at 10 mg/kg, po; assay type: ADME, organism-based; set-up: time 0 - last, route oral, dose 10 mg/kg; details: primates, in vivo
[8] = Clearance in nonhuman primate blood relative to hepatic blood flow; assay type: ADME, tissue-based; details: primates
[9] = Half life in nonhuman primate at 1 mg/kg, iv; assay type: ADME, organism-based; details: primates, in vivo
[10] = Cmax in nonhuman primate at 10 mg/kg, po; assay type: ADME, organism-based; set-up: route oral, dose 10 mg/kg; details: primates, in vivo
[11] = In vivo modulation of gamma secretase in nonhuman primate assessed as reduction in Abeta40 levels in CSF by measuring AUC(0 to 48 hrs) at 30 mg/kg, po by ELISA; assay type: functional, Primates, Cerebrospinal fluid; set-up: scale not given: the % may be the effect or the level left
[12] = In vivo modulation of gamma secretase in nonhuman primate assessed as reduction in Abeta40 levels in CSF at 30 mg/kg, po measured after 12 hrs by ELISA relative to control; assay type: functional, Primates, Cerebrospinal fluid; set-up: scale not given: the % may be the effect or the level left
[13] = Toxicity in guinea pig assessed as effect on inotropy and lusitropy in heart by Langendorff test; assay type: tissue-based, Cavia porcellus; details: in vivo
[14] = target: Cannabinoid receptor 1 (Homo sapiens) (UniProt P21554); assay: Inhibition of Cannabinoid receptor 1 (unknown origin) at 10 uM relative to control
Rattus norvegicus [15] = assay: In vivo modulation of gamma secretase in rat assessed as reduction in Abeta42 levels in brain by measuring AUC(0 to 24 hrs) at 30 mg/kg, po by ELISA; assay type: functional; set-up: scale not given: the % may be the effect or the level left
[16] = Clearance in nonhuman primate at 1 mg/kg, iv; assay type: ADME, organism-based; details: primates, in vivo
[17] = Half life in rat at 1 mg/kg, iv; assay type: ADME, organism-based; details: in vivo
[18] = Toxicity in guinea pig assessed as effect on signal conduction function in heart by Langendorff test; assay type: tissue-based, Cavia porcellus; details: in vivo
[19] = Unbound clearance in human hepatocytes; assay type: ADME, cell-based, Hepatocyte
Homo sapiens [20] = species: Homo sapiens; assay: Inhibition of adenosine transporter (unknown origin) at 10 uM relative to control
Gamma-secretase = assay: (§1) Modulation of gamma-secretase in human H4 cells expressing human wild type APP751 assessed as reduction in amyloid beta42 level incubated overnight by ELISA; assay type: cell-based
[21] = target: Gamma-secretase (Homo sapiens) (UniProt Q96BI3+Q9NZ42+Q8WW43+P49768+Q92542+P49810); assay: as §1; assay type: cell-based; details: filed as modulator
[22] = Clearance in rat at 1 mg/kg, iv; assay type: ADME, organism-based; details: in vivo
[23] = Toxicity in human cardiomyocyte assessed as change in cell health parameters upto 10 uM; details: stem cell-derived cardiomyocyte
[24] = Toxicity in rat assessed as effect on left ventricular filling pressures by telemetry; details: in vivo
[25] = Genotoxicity in human peripheral blood lymphocytes by micronucleus assay; assay type: cell-based; details: pbl
[26] = target: D(2) dopamine receptor (Homo sapiens) (UniProt P14416); assay: Inhibition of dopamine 2-like receptor (unknown origin) at 10 uM relative to control
[27] = Apparent permeability across apical to basolateral side in MDCK-MDR1 cells; assay type: ADME, cell-based, Canis lupus familiaris; details: dog
Homo sapiens [28] = species: Homo sapiens; assay: Inhibition of sodium channel (unknown origin) at 10 uM relative to control
[29] = Toxicity in guinea pig assessed as effect on ion channel function in heart by Langendorff test; assay type: tissue-based, Cavia porcellus; details: in vivo
[30] = Drug metabolism in rat hepatocytes assessed as mono and di-oxidative metabolites formation after 4 hrs; assay type: ADME, cell-based, Hepatocyte
Cytochrome P450 1A2 = target: T1, Cytochrome P450 1A2 (Homo sapiens, UniProt P05177); assay: Inhibition of CYP1A2 (unknown origin); assay type: ADME
T1 sequence (P05177 whole entry): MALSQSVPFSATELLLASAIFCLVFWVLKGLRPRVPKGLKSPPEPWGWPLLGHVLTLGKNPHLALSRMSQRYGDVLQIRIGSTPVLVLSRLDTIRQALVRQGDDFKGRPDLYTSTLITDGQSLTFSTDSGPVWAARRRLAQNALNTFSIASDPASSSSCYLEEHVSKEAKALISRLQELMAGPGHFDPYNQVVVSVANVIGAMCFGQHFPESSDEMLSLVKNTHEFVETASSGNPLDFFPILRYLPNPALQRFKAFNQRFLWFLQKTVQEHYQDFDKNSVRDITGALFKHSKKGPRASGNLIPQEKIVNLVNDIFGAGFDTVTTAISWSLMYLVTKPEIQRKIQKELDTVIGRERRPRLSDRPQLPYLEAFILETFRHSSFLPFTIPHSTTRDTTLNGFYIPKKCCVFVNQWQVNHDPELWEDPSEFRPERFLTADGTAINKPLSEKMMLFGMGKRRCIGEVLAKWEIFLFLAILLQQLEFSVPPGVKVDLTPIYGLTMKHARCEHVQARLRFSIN

[31] = Half life in dog at 0.5 mg/kg, iv; assay type: ADME, organism-based, Canis lupus familiaris; details: in vivo
[32] = target: Prostaglandin G/H synthase 1 (Homo sapiens) (UniProt P23219); assay: Effect on COX1 activity (unknown origin)
Cytochrome P450 2B6 = target: T2, Cytochrome P450 2B6 (Homo sapiens, UniProt P20813); assay: Inhibition of CYP2B6 in human hepatocytes upto 50 uM incubated for 72 hrs; assay type: ADME, cell-based, Hepatocyte
T2 sequence (P20813 whole entry): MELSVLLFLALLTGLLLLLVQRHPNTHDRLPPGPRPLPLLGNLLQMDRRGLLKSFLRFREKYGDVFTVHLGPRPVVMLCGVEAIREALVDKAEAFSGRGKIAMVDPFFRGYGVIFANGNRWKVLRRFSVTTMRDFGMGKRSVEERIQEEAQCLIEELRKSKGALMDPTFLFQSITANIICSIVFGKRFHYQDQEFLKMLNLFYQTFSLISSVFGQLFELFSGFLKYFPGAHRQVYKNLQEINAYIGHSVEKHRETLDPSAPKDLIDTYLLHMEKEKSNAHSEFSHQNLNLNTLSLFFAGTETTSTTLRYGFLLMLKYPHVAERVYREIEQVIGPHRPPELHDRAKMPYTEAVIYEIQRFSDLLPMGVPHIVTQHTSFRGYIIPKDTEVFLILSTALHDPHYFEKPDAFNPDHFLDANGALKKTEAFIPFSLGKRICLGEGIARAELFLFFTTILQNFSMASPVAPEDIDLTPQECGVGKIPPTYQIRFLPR

Mus musculus = assay: In vivo modulation of gamma secretase in mouse assessed as reduction in Abeta42 levels in brain at 30 mg/kg, po measured after 6 hrs relative to control; assay type: functional; set-up: scale not given: the % may be the effect or the level left
Cytochrome P450 2D6 = Cytochrome P450 2D6 (Homo sapiens, UniProt P10635); assay: Inhibition of CYP2D6 (unknown origin); assay type: ADME
Cytochrome P450 2D6, sequence (P10635 whole entry): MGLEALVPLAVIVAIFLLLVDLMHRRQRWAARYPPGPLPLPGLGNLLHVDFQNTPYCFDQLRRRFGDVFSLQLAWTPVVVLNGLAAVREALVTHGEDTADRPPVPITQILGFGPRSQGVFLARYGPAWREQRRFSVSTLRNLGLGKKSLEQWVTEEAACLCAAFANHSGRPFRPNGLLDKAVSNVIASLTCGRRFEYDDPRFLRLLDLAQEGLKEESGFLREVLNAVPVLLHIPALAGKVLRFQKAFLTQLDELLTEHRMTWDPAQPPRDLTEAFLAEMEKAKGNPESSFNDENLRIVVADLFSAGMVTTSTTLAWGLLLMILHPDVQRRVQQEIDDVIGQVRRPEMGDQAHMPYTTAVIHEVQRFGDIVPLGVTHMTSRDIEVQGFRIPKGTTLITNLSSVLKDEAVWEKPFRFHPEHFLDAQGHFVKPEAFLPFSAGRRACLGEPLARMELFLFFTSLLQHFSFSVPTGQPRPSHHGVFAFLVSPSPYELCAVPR

D(2) dopamine receptor (Homo sapiens), sequence (P14416 whole entry): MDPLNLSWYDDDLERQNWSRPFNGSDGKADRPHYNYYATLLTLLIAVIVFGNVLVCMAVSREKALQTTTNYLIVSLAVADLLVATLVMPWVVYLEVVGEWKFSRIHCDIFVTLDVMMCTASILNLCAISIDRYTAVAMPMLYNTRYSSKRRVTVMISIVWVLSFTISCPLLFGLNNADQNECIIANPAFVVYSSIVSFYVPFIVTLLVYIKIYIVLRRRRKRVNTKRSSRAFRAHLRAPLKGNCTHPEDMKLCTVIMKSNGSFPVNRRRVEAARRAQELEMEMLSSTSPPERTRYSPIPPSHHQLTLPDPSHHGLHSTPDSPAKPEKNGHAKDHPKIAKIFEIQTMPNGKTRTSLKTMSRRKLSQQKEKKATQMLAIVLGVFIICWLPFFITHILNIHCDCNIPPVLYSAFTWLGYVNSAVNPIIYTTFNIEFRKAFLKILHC
Cannabinoid receptor 1 (Homo sapiens), sequence (P21554 whole entry): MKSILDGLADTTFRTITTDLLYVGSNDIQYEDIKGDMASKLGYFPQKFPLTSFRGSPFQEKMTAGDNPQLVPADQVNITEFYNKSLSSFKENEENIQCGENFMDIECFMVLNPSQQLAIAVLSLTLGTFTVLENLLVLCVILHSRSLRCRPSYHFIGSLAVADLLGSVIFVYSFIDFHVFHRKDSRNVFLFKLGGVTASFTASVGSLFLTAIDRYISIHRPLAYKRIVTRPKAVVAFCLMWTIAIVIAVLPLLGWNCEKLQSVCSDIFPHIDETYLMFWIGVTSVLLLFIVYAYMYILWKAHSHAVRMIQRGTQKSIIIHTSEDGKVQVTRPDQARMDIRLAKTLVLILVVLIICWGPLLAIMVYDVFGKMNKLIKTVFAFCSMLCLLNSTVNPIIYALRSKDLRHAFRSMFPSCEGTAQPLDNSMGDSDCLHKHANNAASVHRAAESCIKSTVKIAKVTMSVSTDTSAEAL
Prostaglandin G/H synthase 1 (Homo sapiens), sequence (P23219 whole entry): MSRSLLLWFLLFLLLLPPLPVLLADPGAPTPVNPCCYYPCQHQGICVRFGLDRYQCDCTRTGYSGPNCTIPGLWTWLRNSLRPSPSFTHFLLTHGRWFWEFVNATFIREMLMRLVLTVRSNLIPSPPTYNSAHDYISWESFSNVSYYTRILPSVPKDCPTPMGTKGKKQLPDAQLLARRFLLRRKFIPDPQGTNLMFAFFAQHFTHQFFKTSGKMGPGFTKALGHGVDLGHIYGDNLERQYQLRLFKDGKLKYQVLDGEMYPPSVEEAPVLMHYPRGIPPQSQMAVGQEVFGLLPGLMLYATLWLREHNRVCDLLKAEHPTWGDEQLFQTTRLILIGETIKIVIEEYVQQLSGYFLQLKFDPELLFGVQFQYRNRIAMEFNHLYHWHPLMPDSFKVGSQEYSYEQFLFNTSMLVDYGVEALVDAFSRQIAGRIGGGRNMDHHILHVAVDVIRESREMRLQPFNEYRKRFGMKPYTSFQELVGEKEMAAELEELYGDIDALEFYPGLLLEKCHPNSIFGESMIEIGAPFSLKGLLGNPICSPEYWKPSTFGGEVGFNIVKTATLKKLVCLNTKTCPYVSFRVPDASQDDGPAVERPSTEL

In the case of `COc1nc(C2=NOC(C3CC3)C(c3ccc(Cl)cc3)N2)ccc1-n1cnc(C)c1` (configuration not stated), the Activity (Rattus norvegicus [1]) is reported as 67%, the Activity (Rattus norvegicus [2]) is reported as 71% and the Drug metabolism [3] is reported as “Metabolite_Detected”. For the same compound, the Activity [4] was “Non-Toxic”, the Vd [5] was 0.8 L/kg and the Drug metabolism [6] was “Metabolite_Detected”. The AUC(0-t) [7] was 55.9 µM·h, the CL [8] was under 20% and the half-life [9] was 3.9 h. It also gave a Cmax [10] of 6.09 µM, an Activity [11] of 25% and an Activity [12] of 57%. The Activity [13] was “Non-Toxic”, the inhibition [14] was over 50% and the Activity (Rattus norvegicus [15]) was 39%. For the same compound, the clearance [16] was 3.5 mL/min/kg, the half-life [17] was 8.7 h and the Activity [18] was “Non-Toxic”. It also gave a CL free [19] of 4 mL/min/kg, an inhibition (Homo sapiens [20]) of over 50% and an EC50 (Gamma-secretase) of 9 nM. For the same compound, the EC90 [21] was 123 nM, the clearance [22] was 3.1 mL/min/kg and the Activity [23] was “Non-Toxic”. For the same compound, the Activity [24] was “Non-Toxic”, the Activity [25] was “Non-Toxic” and the inhibition [26] was over 50%. For the same compound, the Papp A→B [27] was 34 ×10⁻⁶ cm/s, the inhibition (Homo sapiens [28]) was over 50% and the Activity [29] was “Non-Toxic”. The Drug metabolism [30] was “Metabolite_Detected”, the IC50 (Cytochrome P450 1A2) was at least 14000 nM and the half-life [31] was 2.9 h. For the same compound, the Activity [32] was “inactive”, the “inhibition (INH)” value (Cytochrome P450 2B6) was “Not Active” and the Activity (Mus musculus) was 51%. It also gave an IC50 (Cytochrome P450 2D6) of 4500 nM.
